Experimental data as given in patent publication US20250042884A1, “3-ARYLOXYL-3-FIVE-MEMBERED HETEROARYL PROPYLAMINE COMPOUND AND USE THEREOF” (Shanghai Leado Pharmatech Co. Ltd., priority 2018, published 2025).
pIC50: −log10 of the molar value.

Tests used:
TRPA1 = TRPA1 (Mus musculus (Mouse), UniProt Q8BLA8); experiment: Manual patch clamp test of TRPA1 inhibitory activity; type: cell-based; conditions: FIG. 2
Protocol: The TRPA1 inhibitory activity of compound I-1 was evaluated by manual patch clamp test method.

C57BL/6 mice = experiment: Mice formalin pain model (acute and inflammatory pain); type: in vivo; conditions: for Licking claw time (s) in phase II (10-60 min): hydrochloride salt, blank vehicle 349.55 ± 43.09
From the text: 150 C57BL/6 mice (male, 9-week aged) were randomly divided into 15 groups, (each group had 10 mice) for the analgesic activity test of 3 compounds in the mice formalin pain model respectively: the compound I-1 group (compound I-1 prepared in Example 2 whose hydrochloride salt was used in the experiment), the S-duloxetine group (its hydrochloride salt was used in the experiment) and the compound C1 group (the compound C1 prepared in Comparative Example 1, whose hydrochloride salt was used in the experiment). Before the start of experiments, the mice were allowed to adapt to the experimental environment for 72 h with free feeding and drinking water. The test drugs were administrated by intraperitoneal injection at a dosage as follows:
Compound I-1 group: blank vehicle (blank saline control), 0.1 mg/kg, 0.5 mg/kg, 1 mg/kg, 5 mg/kg and 10 mg/kg;
S-duloxetine group: blank vehicle (blank saline control), 1 mg/kg, 5 mg/kg, 10 mg/kg and 20 mg/kg;
Compound C1 group: blank vehicle (blank saline control), 0.1 mg/kg, 0.5 mg/kg, 1 mg/kg, 5 mg/kg and 10 mg/kg.
After administration, the mice were placed in a transparent, ventilated plexiglass cylinder for 1 h, and then 20 μl of 4% formalin solution was injected into the left hind plantar of mice of each group by microinjector, claw pain response in mice were real-time recorded by a mini-camera. The time length of licking left claw were used as an indicator of pain response, licking time in 0-10 min (phase I) and 10-60 min (phase II) were observed and recorded, and the statistical analysis was conducted. The half effective dose (ED50) of 3 compounds were calculated: ED50 referred to the dose of the drug which decreased licking time by half as compared with the blank control group. The smaller the ED50 value was, the lower the effective analgesic dose of the compound was and the better the analgesic effect was.

TRPA1, sequence (Q8BLA8 whole entry): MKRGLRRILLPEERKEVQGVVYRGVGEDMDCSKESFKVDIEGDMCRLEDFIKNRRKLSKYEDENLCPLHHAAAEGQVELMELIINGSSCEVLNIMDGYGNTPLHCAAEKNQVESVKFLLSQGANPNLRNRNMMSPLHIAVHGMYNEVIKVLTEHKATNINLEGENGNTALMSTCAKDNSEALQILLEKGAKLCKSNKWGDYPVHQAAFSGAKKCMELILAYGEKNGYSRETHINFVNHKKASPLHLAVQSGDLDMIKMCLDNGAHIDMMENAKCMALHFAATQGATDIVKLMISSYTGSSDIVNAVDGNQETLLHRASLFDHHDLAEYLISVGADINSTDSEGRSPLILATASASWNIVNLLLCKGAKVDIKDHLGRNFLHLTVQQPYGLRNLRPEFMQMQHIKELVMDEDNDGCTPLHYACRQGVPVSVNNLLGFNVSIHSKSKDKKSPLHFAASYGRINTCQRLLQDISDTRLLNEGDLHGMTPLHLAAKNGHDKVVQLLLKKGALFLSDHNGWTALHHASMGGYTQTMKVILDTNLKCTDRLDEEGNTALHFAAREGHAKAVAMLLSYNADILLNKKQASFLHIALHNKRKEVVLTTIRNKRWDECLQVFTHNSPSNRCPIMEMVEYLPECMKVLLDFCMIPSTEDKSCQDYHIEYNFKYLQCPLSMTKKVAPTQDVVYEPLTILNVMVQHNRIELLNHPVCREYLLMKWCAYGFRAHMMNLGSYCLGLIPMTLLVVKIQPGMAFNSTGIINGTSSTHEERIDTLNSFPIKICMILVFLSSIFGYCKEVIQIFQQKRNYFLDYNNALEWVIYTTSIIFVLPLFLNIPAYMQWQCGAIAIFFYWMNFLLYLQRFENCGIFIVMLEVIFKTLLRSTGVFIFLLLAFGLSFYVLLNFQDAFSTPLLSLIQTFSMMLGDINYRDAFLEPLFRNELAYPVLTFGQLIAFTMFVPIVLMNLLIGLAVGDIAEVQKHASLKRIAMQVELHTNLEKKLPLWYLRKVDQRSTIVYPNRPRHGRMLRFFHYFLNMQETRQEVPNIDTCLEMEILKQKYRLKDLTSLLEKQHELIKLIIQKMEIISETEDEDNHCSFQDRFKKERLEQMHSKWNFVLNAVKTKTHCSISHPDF

**Q.** With `CNCC[C@@H](Oc1cccc2ccoc12)c1cccs1` [Compound I-1, (R)-3-(benzofuran-7-yloxy)-N-methyl-3-(thiophen-2-yl)propyl-1-amine] as the compound, how does the pIC50 (TRPA1) read?
**A.** 6.38

**Q.** And the “Licking claw time (s) in phase II (10-60 min)” value (“Licking claw time (s)” below) (C57BL/6 mice; 0.1 mg/kg intraperitoneal)?
**A.** 321.55 ± 47.75 s

**Q.** And the “decrease of licking time in phase II (10-60 min) compared with the blank vehicle” value (C57BL/6 mice; 0.5 mg/kg intraperitoneal)?
**A.** more than 50%

**Q.** And the “Licking claw time (s)” value (C57BL/6 mice; 0.5 mg/kg intraperitoneal)?
**A.** 161.25 ± 30.83 s

**Q.** What about the “Licking claw time (s)” value (C57BL/6 mice; 1 mg/kg intraperitoneal) of the same compound?
**A.** 131.28 ± 23.99 s

**Q.** What about the “Licking claw time (s)” value (C57BL/6 mice; 5 mg/kg intraperitoneal) of the same compound?
**A.** 87.85 ± 25.15 s

**Q.** What about the “Licking claw time (s)” value (C57BL/6 mice; 10 mg/kg intraperitoneal) of the same compound?
**A.** 99.08 ± 19.73 s

**Q.** And the “ED50 times stronger than S-duloxetine” value (C57BL/6 mice; phase II, mice formalin model)?
**A.** 30.8 times

**Q.** What about the “ED50 times stronger than compound C1” value (C57BL/6 mice; phase II, mice formalin model) of the same compound?
**A.** 8.5 times
